The test deals with T1, Human GO (Homo sapiens, UniProt Q9UJM8).
T1 construct: purchased Novus Biologicals NBP1-72412
T1 sequence (Q9UJM8 1-370): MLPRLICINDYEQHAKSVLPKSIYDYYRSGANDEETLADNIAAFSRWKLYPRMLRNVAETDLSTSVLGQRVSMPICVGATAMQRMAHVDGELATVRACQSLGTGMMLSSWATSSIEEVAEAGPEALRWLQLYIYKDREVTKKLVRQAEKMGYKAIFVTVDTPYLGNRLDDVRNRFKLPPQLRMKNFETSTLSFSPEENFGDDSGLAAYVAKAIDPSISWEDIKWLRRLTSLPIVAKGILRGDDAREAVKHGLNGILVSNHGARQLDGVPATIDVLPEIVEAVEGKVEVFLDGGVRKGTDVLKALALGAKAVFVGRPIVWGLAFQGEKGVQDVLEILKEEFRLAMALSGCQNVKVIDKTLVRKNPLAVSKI
In words: GO enzymatic assay (coupled fluorescence/HRP assay, glycolate substrate). It is filed as biochemical. Conditions: Table 1; read-out: Range (range of IC50 values calculated from the enzymatic assays). As to the method: Assay 1: GO Enzymatic Assay
GO was incubated with its substrate, glycolate, in 50 mM potassium phosphate buffer, pH 7. […] The enzyme was optimized and the kinetics was determined.
Compound inhibition was determined by adding various concentrations of inhibitors in the GO enzyme assay. The IC50 value for each measured compound was generated from sigmoidal dose-response (variable slope) curves with GraphPad Prism software (GraphPad Software, Inc., San Diego, Calif.) using the percent inhibition of GO activity relative to DMSO control.

By IC50 is commonly meant the concentration at which inhibition is half-maximal. Turning to `COC(=O)c1[nH]nnc1Nc1ccc(-c2ccc(OC(F)(F)F)cc2)cc1` [Compound 65, methyl 4-((4′-(trifluoromethoxy)-[1,1′-biphenyl]-4-yl)amino)-1H-1,2,3-triazole-5-carboxylate], the half-inhibitory concentration (IC50) was > 10000 nM.

Turning to `O=C(O)CN(c1ccc(-c2ccc(Cl)cc2)cc1)c1nn[nH]c1C(=O)O` [Compound 66, 4-((carboxymethyl)(4′-chloro-[1,1′-biphenyl]-4-yl)amino)-1H-1,2,3-triazole-5-carboxylic acid 2,2,2-trifluoroacetate], the IC50 was 1000 to 10000 nM.

Turning to `O=C(O)c1[nH]nnc1NCc1cccc(-c2ccc(Cl)c(Cl)c2)c1` [Compound 67, 4-(((3′,4′-dichloro-[1,1′-biphenyl]-3-yl)methyl)amino)-1H-1,2,3-triazole-5-carboxylic acid], the 50% inhibitory concentration (IC50) is 100 to 1000 nM.

As for `O=C(O)c1[nH]nnc1NCc1ccc(-c2ccc(Cl)c(Cl)c2)cc1` [Compound 68, 4-(((3′,4′-dichloro-[1,1′-biphenyl]-4-yl)methyl)amino)-1H-1,2,3-triazole-5-carboxylic acid], the half-maximal inhibitory concentration (IC50) is < 100 nM.

Take `O=C(O)c1[nH]nnc1Nc1ccc(Cl)c(Cl)c1` [Compound 69, 4-((3,4-dichlorophenyl)amino)-1H-1,2,3-triazole-5-carboxylic acid]: the half-inhibitory concentration (IC50) is < 100 nM.

For `O=C(O)c1[nH]nnc1NC1CCCN(c2ccc(OC(F)(F)F)cc2)C1` (stereo not shown) [Compound 70, 4-((1-(4-(trifluoromethoxy)phenyl)piperidin-3-yl)amino)-1H-1,2,3-triazole-5-carboxylic acid], the IC50 is 100 to 1000 nM.

In the case of `O=C(O)c1[nH]nnc1NC1CCN(c2ccc(Cl)cc2)CC1` [Compound 71, 4-((1-(4-chlorophenyl)piperidin-4-yl)amino)-1H-1,2,3-triazole-5-carboxylic acid 2,2,2-trifluoroacetate], the IC50 is 100 to 1000 nM.

Take `O=C(OC1CC1)c1[nH]nnc1Nc1ccc(-c2ccc(OC(F)(F)F)cc2)cc1` [Compound 72, cyclopropyl 4-((4′-(trifluoromethoxy)-[1,1′-biphenyl]-4-yl)amino)-1H-1,2,3-triazole-5-carboxylate 2,2,2-trifluoroacetate]: the 50% inhibitory concentration (IC50) is > 10000 nM.

Take `O=C(O)c1[nH]nnc1NC1CCN(c2ccc(OC(F)(F)F)cc2)C1` (stereo not shown) [Compound 73]: the half-maximal inhibitory concentration (IC50) was 100 to 1000 nM.

`O=C(O)c1[nH]nnc1NC1CCN(c2ccc(OC(F)(F)F)cc2)CC1` [Compound 74, 4-((1-(4-(trifluoromethoxy)phenyl)piperidin-4-yl)amino)-1H-1,2,3-triazole-5-carboxylic acid]: the half-maximal inhibitory concentration (IC50) was 100 to 1000 nM.

As to `CN(c1ccc(-c2ccc(Cl)cc2)cc1)c1nn[nH]c1C(=O)O` [Compound 75, 4-((4′-chloro-[1,1′-biphenyl]-4-yl)(methyl)amino)-1H-1,2,3-triazole-5-carboxylic acid 2,2,2-trifluoroacetate], the IC50 was 100 to 1000 nM.

With `O=C(O)c1[nH]nnc1Nc1ccc2cc(Cl)ccc2n1` [Compound 76, 4-((6-chloroquinolin-2-yl)amino)-1H-1,2,3-triazole-5-carboxylic acid], the half-maximal inhibitory concentration (IC50) is < 100 nM.

`O=C(O)c1[nH]nnc1Nc1ccc2c(c1)CCCC2` [Compound 77, 4-((5,6,7,8-tetrahydronaphthalen-2-yl)amino)-1H-1,2,3-triazole-5-carboxylic acid]: the half-inhibitory concentration (IC50) was 1000 to 10000 nM.

As to `O=C(O)c1[nH]nnc1Nc1ccc(Cl)c2ccccc12` [Compound 78, 4-((4-chloronaphthalen-1-yl)amino)-1H-1,2,3-triazole-5-carboxylic acid], the half-inhibitory concentration (IC50) was 100 to 1000 nM.

On to `O=C(O)c1[nH]nnc1Nc1ccc2ncsc2c1` [Compound 79, 4-(benzo[d]thiazol-6-ylamino)-1H-1,2,3-triazole-5-carboxylic acid], for which the IC50 was 1000 to 10000 nM.

In the case of `O=C(O)c1[nH]nnc1Nc1ccc(F)c(F)c1` [Compound 80, 4-((3,4-difluorophenyl)amino)-1H-1,2,3-triazole-5-carboxylic acid], the IC50 was 100 to 1000 nM.
